According to patent US7351722B2, “Use of Mangafodipir for treating oxidative stress effects” (Universite Rene Descartes (Paris V), priority 2001, dated 2008):
Read-outs that look alike come from different tables or passages of the source.

Columns and labels:
[1] = system: Hep 3B human hepatic cell line; conditions: 62.5, 125, 250 μg/ml, 1 h before H2O2, MTT after 12 h
Description: The Hep 3B human hepatic cell line was also used for these experiments.
(§1) The cells were seeded in a 96-well culture plate, in a proportion of 5×10^4 cells per well, in a final volume of 50 μl.
One hundred μl of Mangafodipir solution at various concentrations (62.5, 125, 250 μg/ml) were deposited into each well (three wells per concentration tested). After incubation for one hour, 50 μl of a solution of H2O2 at 4 mM were deposited into each well.

[2] = 75.7 μg of Mangafodipir, 10 mM H2O2, pH 7.4
Description: The catalase activity was assayed according to the method described by AEBI [Methods Enzymol., 105, 121-126, (1984)]. The decrease in optical density (OD) at 240 nm of a solution of 10 mM H2O2 in phosphate buffer (50 mM of Na2HPO4/KH2PO4, 0.1 mM EDTA, pH 7.4) was measured in the presence of 75.7 μg of Mangafodipir or, by way of reference, in the presence of 1 unit of bovine catalase.

[3] = system: acetaminophen-induced acute hepatic failure; conditions: mice given acetaminophen
Description: In each of the groups, the livers of several animals were removed in order to perform a histological study.

[4] = Description: The SOD activity of a chemical compound can be determined by the NBT (nitro blue tetrazolium) reduction method according to the technique described by Beauchamp and Fridovich [Anal. Biochem., 44(1), 276-87, (1971)].
The test is carried out at 25° C. in a final volume of buffer of 0.8 ml (50 mM TRIS/HCl, pH 7.6), containing 22 μM of xanthine, 500 U/ml of catalase and 0.2 U/ml of xanthine oxidase. The reduction of NBT, in the presence of 1.5 μg of Mangafodipir or, as a control, in the absence of Mangafodipir, is measured every 30 seconds for 5 minutes. One SOD unit (U SOD) is defined by the amount of enzyme capable of inhibiting the NBT reduction rate by 50%.

[5] = system: acetaminophen-induced acute hepatic failure; assay: Animal survival in acetaminophen-induced acute hepatic failure, comparison of Mangafodipir, MnTBAP and CuDIPS (Example 7); format: in vivo, mice; conditions: for number of surviving animals: 10 mg/kg bolus 2 h before 1000 mg/kg APAP, n = 12
Description: The Mangafodipir, the MnTBAP or the CuDIPS are administered in the form of a bolus, in the preventive capacity, 2 hours before the acetaminophen.
Animal survival is monitored for 24 hours after the administration of acetaminophen.

[6] = spectrophotometry at 340 nm for 5 minutes
Description: The glutathione reductase activity was assayed using the kit: “Glutathione reductase assay kit” marketed by the company Calbiochem. The reaction mixture is analyzed by spectrophotometry at 340 nm for 5 minutes.

[7] = system: Hep 3B human hepatic cell line; conditions: 62.5, 125, 250 μg/ml, 1 h before X/XO, MTT after 12 h
Description: as §1
One hundred μl of Mangafodipir solution at various concentrations (62.5, 125, 250 μg/ml) were deposited into each well (three wells per concentration tested).

[8] = system: acetaminophen-induced acute hepatic failure; conditions: for survival rate: 24 hours after APAP 1000 mg/kg; for number of surviving animals: n = 12
Description: Intraperitoneal injection of acetaminophen into mice induces severe hepatotoxicity, the degree of which can be evaluated by animal survival and macroscopic and microscopic examination of the livers.
The Mangafodipir (marketed under the name […]™ by Nicomed-Amersham) is administered in the form of a bolus, intraperitoneally.
The acetaminophen (APAP), in solution at 100 mg/ml in PBS, at pH 7.4, is administered intraperitoneally.
In a first series of experiments, one group of mice was given a dose of 1000 mg/kg of acetaminophen; a second group was given a dose of 1000 mg/kg of acetaminophen, and a dose of 10 mg/kg of Mangafodipir administered either 2 h before the acetaminophen, or 6 h after; a control group was given Mangafodipir alone (10 mg/kg), or PBS alone.
Animal survival was monitored for 24 hours after the administration of acetaminophen.

**Q.** What does the source list for “Manganese dipyridoxyl phosphate [Mangafodipir]”?
**A.** mortality of hepatic cells under hydrogen peroxide-mediated oxidative stress [1]: prevents the mortality of hepatic cells; catalase activity [2]: 2 U catalase per milligram of Mangafodipir; apoptotic lesions in liver, treated versus not treated [3]: considerably fewer apoptotic lesions; rate of reduction of NBT ([4]; 1.5 μg of Mangafodipir in reaction mixture, control 0.0302/minute): 0.01556 min⁻¹; SOD activity ([4]; 1 U SOD inhibits NBT reduction rate by 50%): 680 U SOD per milligram of Mangafodipir; number of surviving animals ([5]; time 0 h): 12; number of surviving animals ([5]; time 6 h): 12; number of surviving animals ([5]; time 8 h): 12; number of surviving animals ([5]; time 9 h): 12; number of surviving animals ([5]; time 10 h): 11; number of surviving animals ([5]; time 11 h): 11; number of surviving animals ([5]; time 12 h): 11; number of surviving animals ([5]; time 13 h): 10; number of surviving animals ([5]; time 14 h): 10; number of surviving animals ([5]; time 15 h): 10; number of surviving animals ([5]; time 16 h): 9; number of surviving animals ([5]; time 17 h): 9; number of surviving animals ([5]; time 18 h): 9; number of surviving animals ([5]; time 20 h): 9; number of surviving animals ([5]; time 22 h): 8; number of surviving animals ([5]; time 24 h): 8; effect on survival rate ([5]; 10 mg/kg preventively, 1000 mg/kg APAP, 24 h): increases the survival rate in a manner at least equal to the MnTBAP; glutathione reductase activity [6]: 19.9±1.75 mU glutathione reductase per milligram of Mangafodipir; mortality of hepatic cells under superoxide anion-mediated oxidative stress [7]: prevents the mortality of hepatic cells; survival rate ([8]; Mangafodipir after acetaminophen (curative protocol)): greater than 41%; survival rate ([8]; Mangafodipir before acetaminophen (preventive protocol)): about 66%; number of surviving animals ([8]; Group III preventive, 10 mg/kg i.p. 2 h before 1000 mg/kg APAP, time 0 h): 12; number of surviving animals ([8]; Group III preventive, 10 mg/kg i.p. 2 h before 1000 mg/kg APAP, time 6 h): 12; number of surviving animals ([8]; Group III preventive, 10 mg/kg i.p. 2 h before 1000 mg/kg APAP, time 8 h): 12; number of surviving animals ([8]; Group III preventive, 10 mg/kg i.p. 2 h before 1000 mg/kg APAP, time 9 h): 12; number of surviving animals ([8]; Group III preventive, 10 mg/kg i.p. 2 h before 1000 mg/kg APAP, time 10 h): 11; number of surviving animals ([8]; Group III preventive, 10 mg/kg i.p. 2 h before 1000 mg/kg APAP, time 11 h): 11; number of surviving animals ([8]; Group III preventive, 10 mg/kg i.p. 2 h before 1000 mg/kg APAP, time 12 h): 11; number of surviving animals ([8]; Group III preventive, 10 mg/kg i.p. 2 h before 1000 mg/kg APAP, time 13 h): 10; number of surviving animals ([8]; Group III preventive, 10 mg/kg i.p. 2 h before 1000 mg/kg APAP, time 14 h): 10; number of surviving animals ([8]; Group III preventive, 10 mg/kg i.p. 2 h before 1000 mg/kg APAP, time 15 h): 10; number of surviving animals ([8]; Group III preventive, 10 mg/kg i.p. 2 h before 1000 mg/kg APAP, time 16 h): 9; number of surviving animals ([8]; Group III preventive, 10 mg/kg i.p. 2 h before 1000 mg/kg APAP, time 17 h): 9; number of surviving animals ([8]; Group III preventive, 10 mg/kg i.p. 2 h before 1000 mg/kg APAP, time 18 h): 9; number of surviving animals ([8]; Group III preventive, 10 mg/kg i.p. 2 h before 1000 mg/kg APAP, time 20 h): 9; number of surviving animals ([8]; Group III preventive, 10 mg/kg i.p. 2 h before 1000 mg/kg APAP, time 22 h): 8; number of surviving animals ([8]; Group III preventive, 10 mg/kg i.p. 2 h before 1000 mg/kg APAP, time 24 h): 8; number of surviving animals ([8]; Group IV curative, 10 mg/kg i.p. 6 h after 1000 mg/kg APAP, time 0 h): 12; number of surviving animals ([8]; Group IV curative, 10 mg/kg i.p. 6 h after 1000 mg/kg APAP, time 6 h): 12; number of surviving animals ([8]; Group IV curative, 10 mg/kg i.p. 6 h after 1000 mg/kg APAP, time 8 h): 11; number of surviving animals ([8]; Group IV curative, 10 mg/kg i.p. 6 h after 1000 mg/kg APAP, time 9 h): 11; number of surviving animals ([8]; Group IV curative, 10 mg/kg i.p. 6 h after 1000 mg/kg APAP, time 10 h): 10; number of surviving animals ([8]; Group IV curative, 10 mg/kg i.p. 6 h after 1000 mg/kg APAP, time 11 h): 9; number of surviving animals ([8]; Group IV curative, 10 mg/kg i.p. 6 h after 1000 mg/kg APAP, time 12 h): 9; number of surviving animals ([8]; Group IV curative, 10 mg/kg i.p. 6 h after 1000 mg/kg APAP, time 13 h): 8; number of surviving animals ([8]; Group IV curative, 10 mg/kg i.p. 6 h after 1000 mg/kg APAP, time 14 h): 8; number of surviving animals ([8]; Group IV curative, 10 mg/kg i.p. 6 h after 1000 mg/kg APAP, time 15 h): 8; number of surviving animals ([8]; Group IV curative, 10 mg/kg i.p. 6 h after 1000 mg/kg APAP, time 16 h): 7; number of surviving animals ([8]; Group IV curative, 10 mg/kg i.p. 6 h after 1000 mg/kg APAP, time 17 h): 7; number of surviving animals ([8]; Group IV curative, 10 mg/kg i.p. 6 h after 1000 mg/kg APAP, time 18 h): 7; number of surviving animals ([8]; Group IV curative, 10 mg/kg i.p. 6 h after 1000 mg/kg APAP, time 20 h): 6; number of surviving animals ([8]; Group IV curative, 10 mg/kg i.p. 6 h after 1000 mg/kg APAP, time 22 h): 6; number of surviving animals ([8]; Group IV curative, 10 mg/kg i.p. 6 h after 1000 mg/kg APAP, time 24 h): 5
